US6423708B1, “Aralkyl and aralkylidene heterocyclic lactams and imides” (Pfizer INC, priority 1996, dated 2002)

Row | melting point | Structure (SMILES)
1 | 90 to 115 °C | CN1CCN(c2ccccc2C=C2SCCN(Cc3ccc(Cl)c(Cl)c3)C2=O)CC1.Cl.O.O (hydrate or solvate)
2 | 159 to 177 °C | CN1CCN(c2ccccc2C=C2SC(=O)N(c3ccc(C(F)(F)F)cc3)C2=O)CC1.Cl.O.O (hydrate or solvate)
3 | 128 to 134 °C | CN1CCN(c2ccccc2C=C2SCCN(c3ccc(C(F)(F)F)cc3)C2=O)CC1.Cl.O.O.O (hydrate or solvate)
4 | 193 to 193.5 °C | CN1CCN(c2ccccc2C=C2NC(=O)N(c3ccc(Cl)cc3)C2=O)CC1 [Example 2, 3-(4-Chlorophenyl)-5-[2-(4-methylpiperazin-1-yl)-benzylidene]-imidazolidine-2,4-dione]
5 | 106 to 108 °C | CN1CCN(c2ccccc2C=C2SCCN(Cc3ccccc3)C2=O)CC1 [Example 4, 4-Benzyl-2-[2-(4-methylpiperazin-1-yl)-benzylidene]-thiomorpholin-3-one]
6 | 133 to 135 °C | CN1CCN(c2ccccc2C=C2SCCNC2=O)CC1 [Example 10, 2-[2-(4-Methylpiperazin-1-yl)-benzylidene]-thiomorpholin-3-one]
7 | 146 to 147 °C | CN1CCN(c2cccc(F)c2C=C2SCCN(c3ccc(Cl)c(Cl)c3)C2=O)CC1 [Example 11, 4-(3,4-Dichlorophenyl)-2-[2-fluoro-6-(4-methylpiperazin-1-yl)-benzylidene]-thiomorpholin-3-one]
8 | 169 to 171 °C (dec.) | CN1CCN(c2ccccc2C=C2OCCN(c3ccc(Cl)c(Cl)c3)C2=O)CC1 [Example 12, 4-(3,4-Dichlorophenyl)-2-[2-(4-methylpiperazin-1-yl)-benzylidene]-morpholin-3-one]
